Laboratory results as given in patent US20050288215A1, “Inhibition of nuclear export as a treatment for cardiac hypertrophy and heart failure” (priority 2004, published 2005).

Key:
Type in all cases: cell-based
[1] = test system: neonatal rat ventricular myocytes (NRVM); experiment: ANF competition ELISA, secreted ANF in culture supernatants; parameters: ANF induction (secreted ANF in culture supernatants): dose or concentration left out as unconfirmed; conditions: 48 hrs
Method: (§1) Neonatal rat ventricular myocyte (NRVM) preparation and culture. Hearts were dissected from 1 to 3 day-old Sprague-Dawley rats, minced, and digested with collagenase (Worthington; […]) and pancreatin (Sigma; 1× activity equivalent) in 1× Ads buffer (NaCl [116 mM], HEPES [20 mM; pH 7.4], NaH2PO4 [4.8 mM], KCl [5 mM], MgSO4 [[…]], and glucose [5.5 mM]). Cells were centrifuged through a step gradient of Percoll (Pharmacia) to separate myocytes from fibroblasts, and the myocyte pool was further enriched by pre-plating for 2 hours to remove adherent fibroblasts from the cell population. Cells were cultured overnight on dishes coated with gelatin (Sigma; 0.2%) in DMEM containing fetal bovine serum (FBS) (10%), L-glutamine (2 mM), and penicillin-streptomycin. […]
(§2) ANF competition ELISA and total protein measurements. […] Wells were washed 5× with TBS-T and exposed to TMB substrate (Kirkegaard & Perry; […]), which provides a colorimetric readout, for 30 minutes at room temperature. Reactions were terminated with H2SO4 (2N, […]) and absorbance at 450 nm detected using a Fusion Plate Reader (Perkin Elmer/Packard). […] Color development was allowed to proceed for 30 minutes prior to being measured at 595 nm using a micro-titer plate spectrophotometer (Molecular Devices).

[2] = test system: neonatal rat ventricular myocytes (NRVM); experiment: ANF protein by indirect immunofluorescence (perinuclear ANF); parameters: key to Perinuclear ANF: +, presence; −, absence; conditions: for Perinuclear ANF: LMB 18.5 nM
Method: (§3) Neonatal rat ventricular myocyte (NRVM) preparation and culture. Hearts were dissected from 1 to 3 day-old Sprague-Dawley rats, minced, and digested with collagenase (Worthington; […]) and pancreatin (Sigma; 1× activity equivalent) in 1× Ads buffer (NaCl [116 mM], HEPES [20 mM; pH 7.4], NaH2PO4 [4.8 mM], KCl [5 mM], MgSO4 [[…]], and glucose [5.5 mM]). Cells were centrifuged through a step gradient of Percoll (Pharmacia) to separate myocytes from fibroblasts, and the myocyte pool was further enriched by pre-plating for 2 hours to remove adherent fibroblasts from the cell population. Cells were cultured overnight on dishes coated with gelatin (Sigma; 0.2%) in DMEM containing fetal bovine serum (FBS) (10%), L-glutamine (2 mM), and penicillin-streptomycin. After overnight culture, cells were washed with serum-free medium and maintained in DMEM supplemented with Neutridoma-SP (Roche Applied Science), which contains albumin, insulin, transferrin, and other defined organic and inorganic compounds, at either 0.1% or 0.3% v/v, as indicated.
Indirect immunofluorescence. NRVM (2.5×105) were plated on gelatin-coated 6-well dishes. Following the indicated treatments, cells were fixed with formalin (10%) in PBS, permeablized and blocked with PBS containing NP-40 (0.1%) and bovine serum albumin (BSA) (3%), and incubated in the same solution, but with primary antibodies for sarcomeric α-actinin (Sigma, mouse monoclonal; 1:200 dilution) or atrial natriuretic factor (ANF) (Peninsula Labs, rabbit polyclonal; 1:200 dilution). Cells were washed five times with PBS and incubated with fluorescein- or cy3-conjugated secondary antibodies (Jackson Labs, goat polyclonal; 1:200 dilution), followed by a brief incubation with Hoechst dye (Molecular Probes). Cells were washed five times in PBS, one time with water and sequentially covered with mounting solution (Molecular Probes, SlowFade) and glass coverslips. Proteins were visualized with an inverted fluorescence microscope (Olympus, BH-2) at 40× magnification and images captured using a digital camera (Roper Scientific, Photometrics).

[3] = test system: neonatal rat ventricular myocytes (NRVM); experiment: α- and β-myosin heavy chain cytoblot assay
Method: as §3
α- and β-myosin heavy chain cytoblot assay. […] Cells were washed three times with PBS containing BSA (1%), luminol (Pierce) was added, and luminescence detected using a Fusion Plate Reader (Perkin Elmer/Packard).

[4] = test system: neonatal rat ventricular myocytes (NRVM); experiment: RNA dot blot analysis of fetal cardiac gene transcripts; conditions: 48 hrs, LMB 18.5 nM (FIG. 2)
Method: as §3
RNA analysis. NRVM were plated on gelatin-coated 10 cm dishes (2×10^6 cells/dish). Following the indicated treatments, RNA was isolated from cardiomyocytes using Trizol Reagent (Gibco/BRL). Total RNA ([…]) was vacuum blotted onto nitrocellulose membranes (Bio-Rad) using a 96-well format dot blotter (Bio-Rad). Membranes were blocked in 4×SSC containing SDS (1%), 5× Denhardt's Reagent, sodium pyrophosphate (0.05%), and […] sonicated salmon sperm DNA (4 hrs at […]) and incubated with ^32P-end-labeled oligonucleotide probes (1×10^6 cpm/ml; 14 hrs at […]). Sequences of oligonucleotides were as follows: ANF, 5′-[…]-3; a-SK-actin 5′-[…]-3′; a-MHC 5′-[…]-3′; b-MHC 5′-[…]-3′; GAPDH 5′-[…]-3′). Blots were washed twice with 0.5×SSC containing SDS (0.1%; 10 minutes at […]) and analyzed by autoradiography.

[5] = test system: neonatal rat ventricular myocytes (NRVM); experiment: Sarcomere organization, α-actinin indirect immunofluorescence; parameters: key: +, organized sarcomeres; −, disorganized sarcomeres; conditions: 48 hrs, LMB 18.5 nM
Method: as §3
Indirect immunofluorescence. NRVM (2.5×105) were plated on gelatin-coated 6-well dishes. […] Proteins were visualized with an inverted fluorescence microscope (Olympus, BH-2) at 40× magnification and images captured using a digital camera (Roper Scientific, Photometrics).

[6] = test system: neonatal rat ventricular myocytes (NRVM); experiment: Viability: calcein AM / ethidium staining (LIVE/DEAD kit); parameters: key to Calcein Fluorescence / Ethidium Fluorescence: +, fluorescence; −, no fluorescence; conditions: for Calcein Fluorescence / Ethidium Fluorescence: PE (20 μM), 48 hrs
Method: as §3
Toxicity measurements. Adenylate kinase (AK) was measured in culture supernatants employing the bioluminescent ToxiLight kit (BioWhittaker) according to the manufacturer's instructions. Assays were run in a 96-well format and values measured using a Fusion Plate Reader (Perkin Elmer/Packard). Cell viability was also assessed using the LIVE/DEAD Viability/Cytotoxicity Kit (Molecular Probes). This kit employs calcein AM fluorescent dye, which is retained by viable cells, and an ethidium homodimer, which only enters cells with damaged membranes.

[7] = test system: neonatal rat ventricular myocytes (NRVM); experiment: SERCA2 immunoblot analysis; conditions: 48 hours, LMB 18.5 nM (FIG. 8)
Method: as §3
SERCA and MCIP immunoblot analysis. […] Protein concentrations were determined by Bradford Assay (Bio-Rad) and […] total protein resolved by SDS-PAGE with gradient gels (Invitrogen; 4%-20% polyacrylamide). […]

[8] = test system: neonatal rat ventricular myocytes (NRVM); experiment: Toxicity: adenylate kinase (AK) release into culture medium; conditions: 48 hours, LMB 18.5 nM (FIG. 6)
Method: as §1
Toxicity measurements. Adenylate kinase (AK) was measured in culture supernatants employing the bioluminescent ToxiLight kit (BioWhittaker) according to the manufacturer's instructions. Assays were run in a 96-well format and values measured using a Fusion Plate Reader (Perkin Elmer/Packard). Cell viability was also assessed using the LIVE/DEAD Viability/Cytotoxicity Kit (Molecular Probes). […]

[9] = test system: neonatal rat ventricular myocytes (NRVM); experiment: Cell volume measurements by Coulter Counter; conditions: 48 hours
Method: as §3
Cell volume measurements. Three-dimensional measurements of isolates NRVM were conducted using a Coulter Model Z2 instrument (Beckman), as previously described (Said et al., 2004). […] Cell volumes are expressed as […].

[10] = test system: neonatal rat ventricular myocytes (NRVM); experiment: Total cellular protein by Bradford assay
Method: as §1, §2

CCC(=C/[C@H](C)C/C=C/C(C)=C/[C@@H](C)C(=O)[C@@H](C)[C@H](O)[C@@H](C)C/C(C)=C/C(=O)O)/C=C/[C@@H]1OC(=O)C=C[C@@H]1C [LMB, leptomycin B]
ANF induction (secreted ANF in culture supernatants) ([1]; low nanomolar concentrations of LMB (FIG. 1)): efficiently blocked ANF induction
ANF immunostaining ([2]; NRVM stimulated with PE or FBS, LMB present): markedly reduced
ANF expression induced by prostaglandin F2a and endothelin-1 ([2]; NRVM, immunofluorescence, LMB 18.5 nM (Table 3)): efficiently blocked ANF expression
Perinuclear ANF ([2]; NRVM, stimulus ET-1 (50 nM)): −
Perinuclear ANF ([2]; NRVM, stimulus FBS (5%)): −
Perinuclear ANF ([2]; NRVM, stimulus PE (20 μM)): −
Perinuclear ANF ([2]; NRVM, stimulus PGF2a (10 μM)): −
PE-induced β-MyHC protein expression ([3]; 48 hrs, LMB 18.5 nM (FIG. 3)): repressed
T3-mediated coordinate regulation of α- and β-MyHC protein expression ([3]; T3 (3 nM), 48 hours, LMB 18.5 nM (FIG. 7)): no significant effect
PE-induced downregulation of α-MyHC transcripts [4]: inhibited the subtle downregulation
PE-induced β-MyHC mRNA expression [4]: repressed
PE-mediated induction of ANF mRNA transcripts [4]: effectively blocked
PE-mediated induction of α-skeletal actin (α-SK-actin) mRNA transcripts [4]: effectively blocked
Organized Sarcomeres ([5]; stimulus FBS (5%)): −
Organized Sarcomeres ([5]; stimulus PE (20 μM)): −
Ethidium bromide staining (compromised membranes) ([6]; LMB-treated cells (Table 5)): not significantly stained by ethidium bromide
Calcein dye retention (viability) ([6]; LMB-treated cells vs control cells (Table 5)): retained calcein dye as effectively as control cells
Calcein Fluorescence ([6]; LMB 2.3 nM): +
Ethidium Fluorescence ([6]; LMB 2.3 nM): −
Calcein Fluorescence ([6]; LMB 4.6 nM): +
Ethidium Fluorescence ([6]; LMB 4.6 nM): −
Calcein Fluorescence ([6]; LMB 9.25 nM): +
Ethidium Fluorescence ([6]; LMB 9.25 nM): −
Calcein Fluorescence ([6]; LMB 18.5 nM): +
Ethidium Fluorescence ([6]; LMB 18.5 nM): −
PE-induced downregulation of SERCA2 expression [7]: appeared to repress the modest downregulation
T3-induced SERCA2 protein expression ([7]; T3 (3 nM)): failed to alter
Adenylate kinase (AK) in culture medium [8]: did not increase AK
Cell size (cell volume, Coulter Counter) ([9]; LMB 18.5 nM (FIG. 5)): diminished cell size
Agonist-induced increase in total cellular protein content ([10]; PE or FBS, 72 hrs (text; FIG. 4 legend 48 hours), LMB 18.5 nM): effectively blocked

Cc1ccc2[nH]c3c(c2c1)CCCC3NC(=O)CCl (stereo not drawn) [compound 5219668, 2-chloro-N-(6-methyl-2,3,4,9-tetrahydro-1H-carbazol-1-yl)acetamide]
ANF induction in response to PE (secreted ANF) ([1]; PE (20 μM), 5219668 1.25 μM (FIG. 9)): efficiently blocked ANF induction
Agonist-induced increase in cell size (cell volume) ([9]; PE (20 μM), 5219668 1.25 μM (FIG. 11)): effectively blocked the increases
Agonist-induced increase in protein synthesis (total cellular protein) ([10]; PE (20 μM), 48 hours, 5219668 1.25 μM (FIG. 10)): effectively blocked the increases
